Assay results from ChEMBL document CHEMBL1201862, “PubChem BioAssay data set” (2004).
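All cell lines were grown in 96-well plates and treated with compound for 48 hours. GI50 = concentration required for 50% inhibition of growth.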 Activity calls are given as the source filed them. Rule as the data show it: active = GI50 up to about 1.1 µM and inactive = higher.

How the values were obtained:
Experiment in all cases: NCI tumour cell line growth inhibition, 48 h
TK-10 = tested on: TK-10
HOP-62 = tested on: HOP-62
RPMI-8226 = tested on: RPMI-8226
UO-31 = tested on: UO-31
UACC-62 = tested on: UACC-62
786-0 = tested on: 786-0
SW-620 = tested on: SW-620
PC-3 = tested on: PC-3
SK-MEL-2 = tested on: SK-MEL-2
SNB-19 = tested on: SNB-19
CAKI-1 = tested on: CAKI-1
T47D = tested on: T47D
A549 = tested on: A549
LOX IMVI = tested on: LOX IMVI
OVCAR-3 = tested on: OVCAR-3
HCC 2998 = tested on: HCC 2998
NCI-H522 = tested on: NCI-H522
Malme-3M = tested on: Malme-3M
HT-29 = tested on: HT-29

Row | Compound | GI50 (TK-10) | GI50 (HOP-62) | GI50 (RPMI-8226) | GI50 (UO-31) | GI50 (UACC-62) | GI50 (786-0) | GI50 (SW-620) | GI50 (PC-3) | GI50 (SK-MEL-2) | GI50 (SNB-19) | GI50 (CAKI-1) | GI50 (T47D) | GI50 (A549) | GI50 (LOX IMVI) | GI50 (OVCAR-3) | GI50 (HCC 2998) | GI50 (NCI-H522) | GI50 (Malme-3M) | GI50 (HT-29)
1 | CN(C)C(=O)C(F)(F)C(c1ccc(F)cc1)C1C(=O)N(C)C(=O)N(C)C1=O (configuration not stated) | > 100 µM (inactive) | > 100 µM (inactive) | > 100 µM (inactive) | > 100 µM (inactive) | > 100 µM (inactive) | > 100 µM (inactive) | > 100 µM (inactive) | > 100 µM (inactive) | > 100 µM (inactive) | > 100 µM (inactive) | > 100 µM (inactive) | > 100 µM (inactive) | > 100 µM (inactive) | > 100 µM (inactive) | > 100 µM (inactive) | > 100 µM (inactive) |  |  | 
2 | Nc1nc(N)c2c(-c3ccccc3)ccnc2n1 | > 100 µM (inactive) | > 100 µM (inactive) | > 100 µM (inactive) | > 100 µM (inactive) | > 100 µM (inactive) | 67.1 µM (inactive) | 39.7 µM (inactive) | > 100 µM (inactive) | > 100 µM (inactive) | > 100 µM (inactive) | > 100 µM (inactive) |  |  | > 100 µM (inactive) | > 100 µM (inactive) | > 100 µM (inactive) | > 100 µM (inactive) | > 100 µM (inactive) | > 100 µM (inactive)
3 | CCn1c2ccccc2c2cc(Nc3cc(C)[nH]c(=O)n3)ccc21 | > 100 µM (inactive) | > 100 µM (inactive) |  | > 100 µM (inactive) | 0.349 µM (active) | > 100 µM (inactive) | > 100 µM (inactive) | > 100 µM (inactive) | > 100 µM (inactive) | > 100 µM (inactive) | > 100 µM (inactive) | > 100 µM (inactive) | > 100 µM (inactive) |  | > 100 µM (inactive) | > 100 µM (inactive) | 0.916 µM (active) |  | > 100 µM (inactive)
4 | Cn1cnc([N+](=O)[O-])c1Sc1nnnn1-c1ccccc1 | 17.9 µM (inactive) | > 100 µM (inactive) | 11.4 µM (inactive) | 13.7 µM (inactive) | 13.9 µM (inactive) | 16.7 µM (inactive) | 7.05 µM (inactive) |  | 14.1 µM (inactive) | 33.2 µM (inactive) | 15.9 µM (inactive) |  | 23.9 µM (inactive) | 5.65 µM (inactive) | 13.6 µM (inactive) | 18.5 µM (inactive) | 2.34 µM (inactive) | 7.76 µM (inactive) | 15.7 µM (inactive)
5 | C=CCCCC(C#N)(c1ccccc1)N1CCCC1 (configuration not stated) | > 100 µM (inactive) | > 100 µM (inactive) | > 100 µM (inactive) | > 100 µM (inactive) | > 100 µM (inactive) | > 100 µM (inactive) | > 100 µM (inactive) |  | > 100 µM (inactive) | > 100 µM (inactive) | > 100 µM (inactive) |  | > 100 µM (inactive) | > 100 µM (inactive) | > 100 µM (inactive) | > 100 µM (inactive) | > 100 µM (inactive) | > 100 µM (inactive) | > 100 µM (inactive)
6 | Cc1cccc(C)c1NC(=O)CCCC(=O)C(C#N)c1ccc(Cl)cc1 (configuration not stated) | > 100 µM (inactive) | > 100 µM (inactive) | > 100 µM (inactive) | > 100 µM (inactive) | > 100 µM (inactive) | > 100 µM (inactive) | > 100 µM (inactive) |  | > 100 µM (inactive) | > 100 µM (inactive) | > 100 µM (inactive) |  | > 100 µM (inactive) | > 100 µM (inactive) | > 100 µM (inactive) | > 100 µM (inactive) | > 100 µM (inactive) | > 100 µM (inactive) | > 100 µM (inactive)
7 | COc1c(OC)c(N)c2cc(C)c(=O)c(C)cc2c1N | > 100 µM (inactive) | > 100 µM (inactive) | > 100 µM (inactive) | > 100 µM (inactive) | > 100 µM (inactive) | 64.7 µM (inactive) | 18.1 µM (inactive) |  | > 100 µM (inactive) | > 100 µM (inactive) | > 100 µM (inactive) |  | > 100 µM (inactive) | 55.2 µM (inactive) | > 100 µM (inactive) | > 100 µM (inactive) | 96.8 µM (inactive) | > 100 µM (inactive) | > 100 µM (inactive)
8 | COc1c(OC2OC(CO)C(O)C(O)C2O)cc2c(c1OC)-c1ccc(OC)c(=O)cc1C(NC(C)=O)CC2 (configuration not stated) | > 100 µM (inactive) | > 100 µM (inactive) | > 100 µM (inactive) | > 100 µM (inactive) | 60.1 µM (inactive) | > 100 µM (inactive) | > 100 µM (inactive) |  | 57.8 µM (inactive) | > 100 µM (inactive) | > 100 µM (inactive) |  | > 100 µM (inactive) | > 100 µM (inactive) | > 89.7 µM (inactive) | > 100 µM (inactive) | > 100 µM (inactive) | 81.7 µM (inactive) | > 100 µM (inactive)
9 | Cc1c(C(=O)C/C(=N/NC(=O)C[n+]2ccccc2)C(=O)Nc2ccccc2)[n+]([O-])c2ccccc2[n+]1[O-] | > 100 µM (inactive) | > 100 µM (inactive) | > 100 µM (inactive) | > 100 µM (inactive) | > 100 µM (inactive) | > 100 µM (inactive) | > 100 µM (inactive) |  | > 100 µM (inactive) | > 100 µM (inactive) | > 100 µM (inactive) |  | > 100 µM (inactive) | > 100 µM (inactive) | > 100 µM (inactive) | > 100 µM (inactive) | > 100 µM (inactive) | > 100 µM (inactive) | > 100 µM (inactive)
10 | NCC1CCCCC1.O=C(O)NCC1CCCCC1 | 30 µM (inactive) | 17.5 µM (inactive) | 1.36 µM (inactive) | 33.6 µM (inactive) | 18.7 µM (inactive) | 24.1 µM (inactive) | 17.9 µM (inactive) | 17.7 µM (inactive) | 14.1 µM (inactive) | 47.3 µM (inactive) | 28.2 µM (inactive) |  | 30.1 µM (inactive) | 15.3 µM (inactive) | 4.89 µM (inactive) |  | 10.7 µM (inactive) | 2.29 µM (inactive) | 19.3 µM (inactive)
11 | CSCC(COC(C)=O)(CSC)c1ccncc1 | > 100 µM (inactive) | > 100 µM (inactive) | > 100 µM (inactive) | > 100 µM (inactive) | > 100 µM (inactive) | > 100 µM (inactive) | > 100 µM (inactive) |  | > 100 µM (inactive) | > 100 µM (inactive) | > 100 µM (inactive) |  | > 100 µM (inactive) | > 100 µM (inactive) | > 100 µM (inactive) | > 100 µM (inactive) | > 100 µM (inactive) | > 100 µM (inactive) | > 100 µM (inactive)
12 | CCCCCC(=O)N[C@H]1CCc2cc(O)c(O)c(O)c2-c2ccc(SC)c(=O)cc21 | > 100 µM (inactive) | 47 µM (inactive) | 70.5 µM (inactive) | > 77.6 µM (inactive) | 31.6 µM (inactive) | 44.5 µM (inactive) | 17.8 µM (inactive) |  | 33 µM (inactive) | 43.3 µM (inactive) | 28.3 µM (inactive) |  | 36.7 µM (inactive) | 23.1 µM (inactive) | 35.2 µM (inactive) | 32.9 µM (inactive) | 15.1 µM (inactive) | > 80.5 µM (inactive) | 32.7 µM (inactive)
